Consider seven compounds from ChEMBL document CHEMBL5465560, “Selectivity Literature for EUbOPEN Chemogenomic Library” (2024).

In assay [1] the target is Beta-2 adrenergic receptor (Homo sapiens, UniProt P07550). Kind of assay: Selectivity interaction (Panel of kinases, GPCRs, ion channels and transporters (enzymatic assay)) EUB0000266bCl ADRB2.
Assay [2] concerns the target Serine/threonine-protein kinase N2 (Homo sapiens, UniProt Q16513). As to the kind of experiment: Selectivity interaction (Upstate Kinase Profiler service (Millipore)) EUB0000056c PKN2. The following applies: at 1 µM.
Assay [3] addresses T1, Tyrosine-protein kinase receptor TYRO3 (Homo sapiens) (UniProt Q06418).
T1 sequence (whole entry): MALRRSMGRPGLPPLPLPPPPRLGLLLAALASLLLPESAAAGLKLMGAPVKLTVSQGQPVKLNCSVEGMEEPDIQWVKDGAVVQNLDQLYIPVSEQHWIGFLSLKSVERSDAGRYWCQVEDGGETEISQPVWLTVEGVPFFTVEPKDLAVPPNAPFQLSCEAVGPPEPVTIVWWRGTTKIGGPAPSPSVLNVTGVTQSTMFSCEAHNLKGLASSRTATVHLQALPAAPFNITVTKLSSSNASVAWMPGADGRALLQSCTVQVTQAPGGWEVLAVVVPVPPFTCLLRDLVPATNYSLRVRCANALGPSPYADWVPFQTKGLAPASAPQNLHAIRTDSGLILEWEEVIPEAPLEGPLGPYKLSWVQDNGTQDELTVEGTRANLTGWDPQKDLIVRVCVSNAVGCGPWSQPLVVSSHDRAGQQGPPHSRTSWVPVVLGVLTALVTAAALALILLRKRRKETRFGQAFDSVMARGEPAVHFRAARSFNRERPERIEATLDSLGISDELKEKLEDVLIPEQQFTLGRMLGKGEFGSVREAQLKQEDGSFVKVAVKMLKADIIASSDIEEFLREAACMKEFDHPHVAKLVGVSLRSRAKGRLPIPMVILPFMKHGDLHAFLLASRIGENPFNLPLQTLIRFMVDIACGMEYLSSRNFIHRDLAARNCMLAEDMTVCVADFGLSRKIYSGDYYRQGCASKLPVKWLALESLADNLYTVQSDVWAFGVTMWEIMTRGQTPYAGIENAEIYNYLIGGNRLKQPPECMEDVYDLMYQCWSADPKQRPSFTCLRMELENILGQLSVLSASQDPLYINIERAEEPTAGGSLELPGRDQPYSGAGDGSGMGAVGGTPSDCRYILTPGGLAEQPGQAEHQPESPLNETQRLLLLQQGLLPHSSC
Kind of assay: Selectivity interaction (Millipore kinase profiler) EUB0000124b TYRO3. As to conditions: at 10 µM.

In assay [4] the target is T2, Testis-specific serine/threonine-protein kinase 2 (Homo sapiens) (UniProt Q96PF2).
T2 sequence (whole entry): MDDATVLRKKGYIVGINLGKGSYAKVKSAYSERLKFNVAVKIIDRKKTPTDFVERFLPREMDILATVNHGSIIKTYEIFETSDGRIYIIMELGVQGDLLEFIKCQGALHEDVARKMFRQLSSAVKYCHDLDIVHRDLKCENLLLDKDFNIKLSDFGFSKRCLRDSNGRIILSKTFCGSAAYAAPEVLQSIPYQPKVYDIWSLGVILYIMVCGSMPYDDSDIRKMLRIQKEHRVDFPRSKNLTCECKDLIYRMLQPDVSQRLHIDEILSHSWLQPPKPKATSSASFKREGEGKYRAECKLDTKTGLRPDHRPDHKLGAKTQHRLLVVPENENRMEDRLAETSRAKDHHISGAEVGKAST
As to the kind of experiment: Selectivity interaction (Kinase panel (Z-LYTE Assay)) EUB0001632a TSSK2. The following applies: at 10 µM.

Assay [5] has as its target Vascular endothelial growth factor receptor 2 (Homo sapiens, UniProt P35968). As to the kind of experiment: Selectivity interaction (Kinase panel (33PanQinase(R) Activity Assay)) EUB0000877a KDR.
Assay [6] concerns Phosphatidylinositol 4,5-bisphosphate 3-kinase catalytic subunit alpha isoform (Homo sapiens), P42336 [E542K]. The following applies: at 10 µM.
Phosphatidylinositol 4,5-bisphosphate 3-kinase catalytic subunit alpha isoform (Homo sapiens), P42336 [E542K], sequence (P42336 whole entry E542K, canonical isoform): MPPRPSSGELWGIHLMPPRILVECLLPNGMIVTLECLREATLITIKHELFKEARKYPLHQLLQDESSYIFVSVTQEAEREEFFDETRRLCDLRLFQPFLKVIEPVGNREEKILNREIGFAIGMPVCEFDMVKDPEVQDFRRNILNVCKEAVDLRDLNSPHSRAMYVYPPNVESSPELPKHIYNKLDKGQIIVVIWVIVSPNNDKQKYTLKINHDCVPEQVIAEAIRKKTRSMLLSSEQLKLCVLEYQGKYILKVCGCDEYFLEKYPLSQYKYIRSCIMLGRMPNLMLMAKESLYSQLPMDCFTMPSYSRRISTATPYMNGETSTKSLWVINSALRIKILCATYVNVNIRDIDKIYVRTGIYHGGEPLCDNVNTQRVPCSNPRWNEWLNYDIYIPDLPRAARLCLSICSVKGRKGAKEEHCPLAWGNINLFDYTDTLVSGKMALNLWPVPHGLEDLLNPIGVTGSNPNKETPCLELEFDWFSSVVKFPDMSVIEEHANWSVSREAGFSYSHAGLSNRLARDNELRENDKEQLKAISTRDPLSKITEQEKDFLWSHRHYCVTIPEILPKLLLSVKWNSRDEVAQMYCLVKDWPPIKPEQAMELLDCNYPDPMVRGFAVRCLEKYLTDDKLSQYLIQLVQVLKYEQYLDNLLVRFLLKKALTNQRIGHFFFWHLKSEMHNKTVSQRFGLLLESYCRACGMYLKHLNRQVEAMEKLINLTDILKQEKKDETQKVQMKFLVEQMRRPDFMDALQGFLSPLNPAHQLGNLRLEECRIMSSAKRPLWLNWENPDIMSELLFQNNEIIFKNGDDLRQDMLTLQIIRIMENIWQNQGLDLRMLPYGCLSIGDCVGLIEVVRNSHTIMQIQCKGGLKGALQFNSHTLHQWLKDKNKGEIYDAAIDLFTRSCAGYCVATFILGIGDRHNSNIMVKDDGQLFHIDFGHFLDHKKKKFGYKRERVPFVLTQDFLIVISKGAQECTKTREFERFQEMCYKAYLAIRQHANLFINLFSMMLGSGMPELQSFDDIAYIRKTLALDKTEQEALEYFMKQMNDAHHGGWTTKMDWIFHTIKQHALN
Assay [7] addresses T3, Ephrin type-A receptor 3 (Homo sapiens) (UniProt P29320).
T3 sequence (whole entry): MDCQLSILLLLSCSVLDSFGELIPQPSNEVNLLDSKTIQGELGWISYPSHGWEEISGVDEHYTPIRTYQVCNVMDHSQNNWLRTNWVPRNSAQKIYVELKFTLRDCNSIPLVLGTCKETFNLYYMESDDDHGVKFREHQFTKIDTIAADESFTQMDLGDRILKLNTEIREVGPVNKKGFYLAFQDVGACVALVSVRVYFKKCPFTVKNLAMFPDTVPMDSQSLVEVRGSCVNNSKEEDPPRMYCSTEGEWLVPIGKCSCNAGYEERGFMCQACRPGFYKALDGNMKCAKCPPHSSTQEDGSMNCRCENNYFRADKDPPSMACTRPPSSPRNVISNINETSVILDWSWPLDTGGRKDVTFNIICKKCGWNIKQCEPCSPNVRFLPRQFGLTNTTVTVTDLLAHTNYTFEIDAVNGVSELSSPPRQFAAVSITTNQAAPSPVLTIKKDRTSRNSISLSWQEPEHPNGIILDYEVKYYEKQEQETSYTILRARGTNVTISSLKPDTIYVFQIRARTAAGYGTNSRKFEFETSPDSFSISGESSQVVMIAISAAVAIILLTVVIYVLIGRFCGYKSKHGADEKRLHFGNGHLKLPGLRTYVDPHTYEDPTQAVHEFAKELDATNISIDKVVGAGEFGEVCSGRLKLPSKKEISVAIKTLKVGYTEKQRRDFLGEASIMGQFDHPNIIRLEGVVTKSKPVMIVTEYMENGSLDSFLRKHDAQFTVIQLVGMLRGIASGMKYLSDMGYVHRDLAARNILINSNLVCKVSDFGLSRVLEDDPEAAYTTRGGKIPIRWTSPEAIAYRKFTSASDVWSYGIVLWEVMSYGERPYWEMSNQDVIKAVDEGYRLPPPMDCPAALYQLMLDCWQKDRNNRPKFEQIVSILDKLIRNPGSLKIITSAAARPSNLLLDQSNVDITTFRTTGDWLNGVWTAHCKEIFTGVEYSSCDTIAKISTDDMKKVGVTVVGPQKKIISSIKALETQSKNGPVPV
Kind of assay: Selectivity interaction (KinomeScan (DiscoverX)) EUB0000618a EPHA3. The following applies: at 10 µM.

Vascular endothelial growth factor receptor 2, sequence (P35968 whole entry, canonical isoform): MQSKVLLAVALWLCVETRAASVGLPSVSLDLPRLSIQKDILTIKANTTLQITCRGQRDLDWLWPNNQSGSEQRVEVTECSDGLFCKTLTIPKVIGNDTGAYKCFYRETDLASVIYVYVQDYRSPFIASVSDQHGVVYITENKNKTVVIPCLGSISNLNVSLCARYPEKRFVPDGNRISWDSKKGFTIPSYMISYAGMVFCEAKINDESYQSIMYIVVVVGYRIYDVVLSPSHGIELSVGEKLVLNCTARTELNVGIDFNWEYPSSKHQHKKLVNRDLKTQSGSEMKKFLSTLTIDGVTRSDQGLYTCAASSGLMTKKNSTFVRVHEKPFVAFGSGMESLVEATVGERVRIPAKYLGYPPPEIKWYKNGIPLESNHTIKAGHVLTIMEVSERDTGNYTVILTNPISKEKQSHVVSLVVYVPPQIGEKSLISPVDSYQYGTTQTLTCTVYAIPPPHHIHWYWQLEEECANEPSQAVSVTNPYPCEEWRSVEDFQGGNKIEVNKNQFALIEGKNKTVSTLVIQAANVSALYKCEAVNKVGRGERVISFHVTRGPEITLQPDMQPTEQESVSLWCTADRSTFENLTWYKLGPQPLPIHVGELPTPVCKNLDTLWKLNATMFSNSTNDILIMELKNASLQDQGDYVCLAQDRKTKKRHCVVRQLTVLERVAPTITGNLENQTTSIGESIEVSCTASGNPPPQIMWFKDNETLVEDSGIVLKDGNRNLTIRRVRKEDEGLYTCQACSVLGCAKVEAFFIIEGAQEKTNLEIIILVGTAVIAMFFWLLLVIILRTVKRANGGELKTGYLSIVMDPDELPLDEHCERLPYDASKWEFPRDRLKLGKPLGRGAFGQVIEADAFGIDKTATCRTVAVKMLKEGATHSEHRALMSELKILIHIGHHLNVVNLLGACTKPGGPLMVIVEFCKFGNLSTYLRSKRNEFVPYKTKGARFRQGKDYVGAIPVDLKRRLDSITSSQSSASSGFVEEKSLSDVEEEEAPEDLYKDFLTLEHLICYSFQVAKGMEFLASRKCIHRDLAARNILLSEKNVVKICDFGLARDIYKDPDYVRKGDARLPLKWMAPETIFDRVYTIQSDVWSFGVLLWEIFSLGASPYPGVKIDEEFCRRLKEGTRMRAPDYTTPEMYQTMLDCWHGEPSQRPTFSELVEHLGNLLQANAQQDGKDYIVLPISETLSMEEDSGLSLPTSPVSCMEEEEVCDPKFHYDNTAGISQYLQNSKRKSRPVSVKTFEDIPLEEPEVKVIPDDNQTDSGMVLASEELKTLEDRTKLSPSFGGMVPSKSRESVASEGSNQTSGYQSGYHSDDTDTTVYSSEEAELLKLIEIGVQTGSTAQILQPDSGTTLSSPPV
Serine/threonine-protein kinase N2, sequence (Q16513 whole entry, looked up): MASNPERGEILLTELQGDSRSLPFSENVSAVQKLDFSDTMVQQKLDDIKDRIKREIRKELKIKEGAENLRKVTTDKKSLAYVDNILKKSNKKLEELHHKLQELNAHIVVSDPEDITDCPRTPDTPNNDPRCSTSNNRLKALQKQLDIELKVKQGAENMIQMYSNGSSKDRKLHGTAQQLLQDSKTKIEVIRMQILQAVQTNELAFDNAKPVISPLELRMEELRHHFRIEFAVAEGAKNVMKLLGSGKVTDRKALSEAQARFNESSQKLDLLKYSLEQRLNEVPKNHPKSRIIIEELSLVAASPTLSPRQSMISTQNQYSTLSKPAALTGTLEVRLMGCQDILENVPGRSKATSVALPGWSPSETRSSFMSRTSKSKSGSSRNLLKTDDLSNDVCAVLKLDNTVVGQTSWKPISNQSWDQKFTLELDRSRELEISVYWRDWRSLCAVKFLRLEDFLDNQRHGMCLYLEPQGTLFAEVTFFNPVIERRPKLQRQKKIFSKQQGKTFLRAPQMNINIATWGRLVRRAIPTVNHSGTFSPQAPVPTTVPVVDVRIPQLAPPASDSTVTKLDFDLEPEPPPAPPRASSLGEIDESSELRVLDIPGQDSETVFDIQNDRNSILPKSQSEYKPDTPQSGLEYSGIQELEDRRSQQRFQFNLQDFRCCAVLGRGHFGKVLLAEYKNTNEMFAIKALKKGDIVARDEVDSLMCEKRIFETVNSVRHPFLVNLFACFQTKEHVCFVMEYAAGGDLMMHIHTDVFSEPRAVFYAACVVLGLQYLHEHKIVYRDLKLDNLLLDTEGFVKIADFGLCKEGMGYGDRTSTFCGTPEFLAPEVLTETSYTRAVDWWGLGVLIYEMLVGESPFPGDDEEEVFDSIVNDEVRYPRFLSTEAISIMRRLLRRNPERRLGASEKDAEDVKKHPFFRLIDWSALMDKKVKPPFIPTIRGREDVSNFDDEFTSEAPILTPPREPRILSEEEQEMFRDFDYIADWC
Beta-2 adrenergic receptor, sequence (P07550 whole entry, looked up): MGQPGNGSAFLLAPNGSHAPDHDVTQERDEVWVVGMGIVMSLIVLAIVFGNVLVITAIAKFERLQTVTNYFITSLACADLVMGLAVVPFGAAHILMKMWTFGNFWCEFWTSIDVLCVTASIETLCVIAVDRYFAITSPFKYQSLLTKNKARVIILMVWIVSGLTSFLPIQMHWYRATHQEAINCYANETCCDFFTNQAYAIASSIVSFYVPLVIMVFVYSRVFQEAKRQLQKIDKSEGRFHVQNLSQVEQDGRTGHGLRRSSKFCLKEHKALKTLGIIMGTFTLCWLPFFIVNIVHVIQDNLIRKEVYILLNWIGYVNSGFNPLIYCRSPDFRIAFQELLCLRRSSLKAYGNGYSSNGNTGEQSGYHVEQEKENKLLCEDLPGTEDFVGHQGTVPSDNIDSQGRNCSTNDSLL

`CCn1c(-c2nc3cc(C(=O)N4CCCC(N)C4)ccc3n2C)cc2ccccc21` (configuration not stated) had a pXC50 in assay [1] of less than 4.5 M. Take `Cc1ccc(-c2ccc3c(ccc4sc5c(c43)NC[C@@H](C)NC5=O)n2)cn1`: the % of inhibition in assay [2] is -8%.

For the compound `CC(=O)Nc1cccc(-n2c(=O)n(C3CC3)c(=O)c3c(Nc4ccc(I)cc4F)n(C)c(=O)c(C)c32)c1`, the % of control in assay [3] came out at 112%.

Consider `Cn1cc(-n2cnc3c(NCc4nc5cc(Cl)c(Cl)cc5[nH]4)nc(N4CCOCC4)nc32)cn1`, for which the % of control in assay [4] was -16.5%. Take `CCC(=O)N1CC[C@H](Nc2ncnc3c2CN(c2cnc(OC)c(C(F)(F)F)c2)CC3)C1` [LENIOLISIB]: the IC50 in assay [5] is more than 10 µM. Regarding `COCC(=O)NC/C=C/c1ccc2ncnc(Nc3ccc(Oc4ccc(C)nc4)c(C)c3)c2c1` [CP-724714], the % of control in assay [6] is 100%. Take `O[C@H]1CC[C@H](Nc2ncc3nc(Nc4c(F)cc(F)cc4F)n([C@H]4CCOC4)c3n2)CC1`: the % of control in assay [7] was found to be 85%.

A word on the IC50: it is the point on the concentration scale where inhibition reaches its midpoint.
